From paper doi:10.1101/2024.02.12.580006v1 (biorxiv, 2024) come the findings set out here.

By Ki is commonly meant a dissociation constant, usually derived from enzyme kinetics or from competition with a known ligand. Low readings indicate a stronger hold on the target, high ones a looser hold on the target. Usually Km stands for the concentration of substrate that gives half-maximal velocity. Usually kcat stands for the number of substrate molecules converted per active site and unit of time at saturation.

For data set [1], the target named is T1, PttCesA8 (Populus tremula x Populus tremuloides, UniProt Q6J8X0).
T1 sequence (Q6J8X0 1-978): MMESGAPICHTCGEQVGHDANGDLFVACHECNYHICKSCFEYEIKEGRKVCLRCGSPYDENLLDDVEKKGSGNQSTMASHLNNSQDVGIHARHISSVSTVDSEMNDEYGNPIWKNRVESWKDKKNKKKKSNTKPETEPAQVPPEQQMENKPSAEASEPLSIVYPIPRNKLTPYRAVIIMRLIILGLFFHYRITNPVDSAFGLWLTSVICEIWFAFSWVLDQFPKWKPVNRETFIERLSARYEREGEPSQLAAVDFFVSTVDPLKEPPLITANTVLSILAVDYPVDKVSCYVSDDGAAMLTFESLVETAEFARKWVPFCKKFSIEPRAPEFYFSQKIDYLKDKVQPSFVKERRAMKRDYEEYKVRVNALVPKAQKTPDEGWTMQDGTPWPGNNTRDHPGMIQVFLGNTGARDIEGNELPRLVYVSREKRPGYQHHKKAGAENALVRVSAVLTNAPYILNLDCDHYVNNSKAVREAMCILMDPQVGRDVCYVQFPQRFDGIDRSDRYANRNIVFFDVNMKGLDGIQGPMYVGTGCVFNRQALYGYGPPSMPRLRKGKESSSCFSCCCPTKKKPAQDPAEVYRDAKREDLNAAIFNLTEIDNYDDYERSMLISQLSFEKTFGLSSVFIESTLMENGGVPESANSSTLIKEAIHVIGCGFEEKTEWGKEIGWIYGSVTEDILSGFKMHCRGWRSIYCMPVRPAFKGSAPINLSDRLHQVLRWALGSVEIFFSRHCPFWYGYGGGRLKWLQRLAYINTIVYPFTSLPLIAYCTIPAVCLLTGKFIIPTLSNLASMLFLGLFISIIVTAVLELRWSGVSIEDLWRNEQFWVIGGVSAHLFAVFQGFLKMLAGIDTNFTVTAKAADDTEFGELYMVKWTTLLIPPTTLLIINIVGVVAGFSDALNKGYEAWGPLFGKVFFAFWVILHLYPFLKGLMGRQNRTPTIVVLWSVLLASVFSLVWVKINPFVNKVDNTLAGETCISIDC
Description: UDP-Glo luminescence, product inhibition, exponential fit. The data set is classed as biochemical.

In data set [2] the target is T2, SeHas (Streptococcus dysgalactiae, UniProt O50201).
T2 sequence (O50201 1-417): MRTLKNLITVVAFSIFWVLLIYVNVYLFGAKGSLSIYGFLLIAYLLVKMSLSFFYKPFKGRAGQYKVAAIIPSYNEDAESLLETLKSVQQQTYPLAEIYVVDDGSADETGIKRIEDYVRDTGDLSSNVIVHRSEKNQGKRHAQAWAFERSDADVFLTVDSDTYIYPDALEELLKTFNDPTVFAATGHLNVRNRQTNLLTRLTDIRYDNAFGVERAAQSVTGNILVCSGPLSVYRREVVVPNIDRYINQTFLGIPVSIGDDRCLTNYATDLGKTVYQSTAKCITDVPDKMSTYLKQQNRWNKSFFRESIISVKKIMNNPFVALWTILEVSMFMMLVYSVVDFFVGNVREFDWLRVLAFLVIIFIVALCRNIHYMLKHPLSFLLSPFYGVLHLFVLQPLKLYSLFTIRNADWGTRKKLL
Described as above. The data set is classed as biochemical.

Substrate in data set [3]: O=c1ccn([C@@H]2O[C@H](CO[P@@](=O)(O)O[P@@](=O)(O)O[C@H]3O[C@H](CO)[C@@H](O)[C@H](O)[C@H]3O)[C@@H](O)[C@H]2O)c(=O)[nH]1
As to the kind of experiment: purified protein. Particulars: 20 mM MnCl2, 37 °C, 30 min, proteoliposomes.

For `O=c1ccn([C@@H]2O[C@H](COP(=O)(O)OP(=O)(O)O)[C@@H](O)[C@H]2O)c(=O)[nH]1` [UDP], the Ki worked out at 10.1 µM in data set [1] and 24.4 µM in data set [2].

B1: PttCesA8 (Populus tremula x Populus tremuloides) (protein)
chain: MMESGAPICHTCGEQVGHDANGDLFVACHECNYHICKSCFEYEIKEGRKVCLRCGSPYDENLLDDVEKKGSGNQSTMASHLNNSQDVGIHARHISSVSTVDSEMNDEYGNPIWKNRVESWKDKKNKKKKSNTKPETEPAQVPPEQQMENKPSAEASEPLSIVYPIPRNKLTPYRAVIIMRLIILGLFFHYRITNPVDSAFGLWLTSVICEIWFAFSWVLDQFPKWKPVNRETFIERLSARYEREGEPSQLAAVDFFVSTVDPLKEPPLITANTVLSILAVDYPVDKVSCYVSDDGAAMLTFESLVETAEFARKWVPFCKKFSIEPRAPEFYFSQKIDYLKDKVQPSFVKERRAMKRDYEEYKVRVNALVPKAQKTPDEGWTMQDGTPWPGNNTRDHPGMIQVFLGNTGARDIEGNELPRLVYVSREKRPGYQHHKKAGAENALVRVSAVLTNAPYILNLDCDHYVNNSKAVREAMCILMDPQVGRDVCYVQFPQRFDGIDRSDRYANRNIVFFDVNMKGLDGIQGPMYVGTGCVFNRQALYGYGPPSMPRLRKGKESSSCFSCCCPTKKKPAQDPAEVYRDAKREDLNAAIFNLTEIDNYDDYERSMLISQLSFEKTFGLSSVFIESTLMENGGVPESANSSTLIKEAIHVIGCGFEEKTEWGKEIGWIYGSVTEDILSGFKMHCRGWRSIYCMPVRPAFKGSAPINLSDRLHQVLRWALGSVEIFFSRHCPFWYGYGGGRLKWLQRLAYINTIVYPFTSLPLIAYCTIPAVCLLTGKFIIPTLSNLASMLFLGLFISIIVTAVLELRWSGVSIEDLWRNEQFWVIGGVSAHLFAVFQGFLKMLAGIDTNFTVTAKAADDTEFGELYMVKWTTLLIPPTTLLIINIVGVVAGFSDALNKGYEAWGPLFGKVFFAFWVILHLYPFLKGLMGRQNRTPTIVVLWSVLLASVFSLVWVKINPFVNKVDNTLAGETCISIDC
For B1, in data set [3], the Km is 295.8 µM and the kcat worked out at 21.57 s⁻¹.
